Assay results: patent EP1377579B1 (Aventis Pharmaceuticals Inc., priority 2000, dated 2002)
Structures can show the parent of a compound that is named as a salt.

Columns and labels:
[1] = molecular target: cdk4/cyclin D1 (Homo sapiens, UniProt P11802); assay: Cyclin-dependent kinase assay, cdk4/cyclin D1; assay type: biochemical; conditions: cyclin D1/cdk4; GST-pRb substrate, 10 µM ATP
[2] = molecular target: cdk1/cyclin B (Homo sapiens, UniProt P06493); assay: Cyclin-dependent kinase assay, cdk1/cyclin B; conditions: CDK1 IC50, nM, Histone H1, 10 µM ATP
Chain of cdk1/cyclin B (P06493 whole entry): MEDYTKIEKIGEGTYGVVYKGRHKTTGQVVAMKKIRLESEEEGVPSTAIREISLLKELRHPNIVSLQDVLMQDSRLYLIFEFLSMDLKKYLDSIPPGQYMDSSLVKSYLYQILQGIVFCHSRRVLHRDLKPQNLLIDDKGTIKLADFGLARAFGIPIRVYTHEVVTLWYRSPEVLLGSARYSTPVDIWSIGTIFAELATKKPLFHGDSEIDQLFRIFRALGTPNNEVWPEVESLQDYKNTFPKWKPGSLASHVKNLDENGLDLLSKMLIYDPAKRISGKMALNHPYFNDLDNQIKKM
Chain of cdk1/cyclin B (P14635 whole entry partner): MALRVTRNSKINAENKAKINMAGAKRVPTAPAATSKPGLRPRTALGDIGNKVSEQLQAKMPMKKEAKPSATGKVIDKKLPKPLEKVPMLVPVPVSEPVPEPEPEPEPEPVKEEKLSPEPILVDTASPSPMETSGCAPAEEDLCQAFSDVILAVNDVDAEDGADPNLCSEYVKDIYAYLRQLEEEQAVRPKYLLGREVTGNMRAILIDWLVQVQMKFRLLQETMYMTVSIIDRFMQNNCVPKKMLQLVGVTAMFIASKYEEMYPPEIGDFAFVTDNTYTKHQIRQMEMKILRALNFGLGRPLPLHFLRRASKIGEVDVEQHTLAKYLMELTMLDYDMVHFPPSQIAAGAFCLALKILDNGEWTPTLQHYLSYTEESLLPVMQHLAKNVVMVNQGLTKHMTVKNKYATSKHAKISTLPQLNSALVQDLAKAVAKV

[3] = system: HL-60; assay: In vitro proliferation assay (MTT), HL-60; assay type: cell-based; conditions: Homo sapiens, HL-60; MTT assay; value (SD, n) where given; read-out: HL-60 Leuk. (IC50 µM)
Protocol: (§1) The proliferation of tumor cells can be measured using a tetrazolium salt-based assay known as the MTT (3-[4,5-Dimethylthiazol-2-yl]-2,5-diphenyltetrazolium bromide) assay. The proliferation test is performed essentially as described by Carmichael et al., Cancer Res. 47: 936-942, 1987. For the assay, the cell lines are plated onto 96 well plates at 1000 to 2500 cells/well (depending on the properties of the individual cell lines), left to attach and recover overnight. […] After 3 days, the cells are incubated with MTT dye (3-[4,5-Dimethylthiazol-2-yl]-2,5-diphenyltetrazolium bromide, Sigma # M5655, 10 mg/ml in Hank's Buffered Saline) to estimate the amount of live cells remaining vs. concentration for the test compounds. Specifically, MTT solution is added to a final concentration of […] and the plates incubated at 37 C for 2 to 4 hr. The MTT and culture medium is then removed from the cultures and 200 µl of DMSO is added to solubilize the dye from the cell layer. The absorbance at 570 nm is determined for each culture using a Spectramax plate reader (Molecular Devices).
(§2) IC50s were determined from the raw data from either the MTT or SRB assays.
(§3) All of the cell lines were obtained from American Type Tissue Collection, with the ATCC accession number in parentheticals. MCF-7 and MDA-MB-231 cells were grown in improved minimum essential medium (Biofluids) without phenol red, supplemented with 5 % fetal bovine serum, 0.01 mg/ml gentamicin and 3 mM L-glutamine. All of the other cell lines were grown in RPMI 1640 medium (Life Technologies) supplemented with 5 % fetal bovine serum, 0.01 mg/ml gentamicin and 3 mM L-glutamine TABLE 3

[4] = system: NCI-H460; assay: In vitro proliferation assay (MTT), NCI-H460; assay type: cell-based; conditions: Homo sapiens, NCI-H460; MTT assay; value (SD, n) where given; read-out: H-460 Lung (IC50 µM)
In short: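 Tetrazolium (MTT) proliferation test following a 3-day treatment with compound. Read-out is optical density at 570 nm after DMSO solubilization.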

[5] = system: Jurkat; assay: In vitro proliferation assay (MTT), Jurkat; assay type: cell-based; conditions: Homo sapiens, MTT assay, value (SD, n) where given, read-out: Jurkat Leuk. (IC50 µM)
Protocol: as §1, §2, §3

[6] = system: Colo-205; assay: In vitro proliferation assay (MTT), Colo-205; assay type: cell-based; conditions: Homo sapiens, COLO 205; MTT assay; value (SD, n) where given; read-out: Colo-205 Colon (IC50 µM)
In short: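 Colo-205 cells were seeded at 1000–2500 cells/well and allowed to attach overnight, then exposed to compound for 3 days. Viable cells were measured by MTT reduction (2–4 h, 37 °C), with DMSO-solubilised dye read at 570 nm. IC50 was derived from concentration–response data.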

[7] = system: PC-3; assay: In vitro proliferation assay (MTT), PC-3; assay type: cell-based, human; conditions: Homo sapiens, PC-3, MTT assay; value (SD, n) where given; read-out: PC-3 Prostate (IC50 µM)
In short: (§4)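 IC50 values come from absorbance at 570 nm after MTT staining of cells grown with compound for 3 days. Seeding density was 1000 to 2500 cells/well, depending on the line.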

[8] = system: MDA-MB-435; assay: In vitro proliferation assay (MTT), MDA-MB-435; assay type: cell-based, human; conditions: Homo sapiens, MDA-MB-435, MTT assay; value (SD, n) where given; read-out: MB-435 Breast (IC50 µM)
In short: as §4

[9] = molecular target: cdk2/cyclin E (Homo sapiens, UniProt P24941); assay: Cyclin-dependent kinase assay, cdk2/cyclin E; conditions: CDK2 IC50, nM, GST-pRb substrate, 10 µM ATP

Chain of cdk4/cyclin D1 (P11802 whole entry): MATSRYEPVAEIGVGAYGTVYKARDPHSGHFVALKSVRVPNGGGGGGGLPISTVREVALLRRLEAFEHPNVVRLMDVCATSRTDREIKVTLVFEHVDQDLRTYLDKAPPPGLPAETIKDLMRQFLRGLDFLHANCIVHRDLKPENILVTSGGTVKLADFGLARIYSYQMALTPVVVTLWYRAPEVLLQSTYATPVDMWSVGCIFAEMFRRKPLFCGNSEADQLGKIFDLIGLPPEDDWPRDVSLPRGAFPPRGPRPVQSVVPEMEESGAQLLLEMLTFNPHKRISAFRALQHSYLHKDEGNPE
Chain of cdk4/cyclin D1 (P24385 whole entry partner): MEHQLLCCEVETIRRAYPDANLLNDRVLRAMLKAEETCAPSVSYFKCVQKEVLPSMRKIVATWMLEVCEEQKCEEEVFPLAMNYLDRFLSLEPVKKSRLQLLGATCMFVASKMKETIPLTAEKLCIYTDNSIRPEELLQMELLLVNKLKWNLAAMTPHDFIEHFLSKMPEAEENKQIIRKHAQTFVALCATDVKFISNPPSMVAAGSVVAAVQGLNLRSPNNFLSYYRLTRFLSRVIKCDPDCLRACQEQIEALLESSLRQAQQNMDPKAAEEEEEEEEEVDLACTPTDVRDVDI

| IC50 [1] | IC50 [2] | IC50 [3] | IC50 [4] | IC50 [5] | IC50 [6] | IC50 [7] | IC50 [8] | IC50 [9] | SMILES |
| --- | --- | --- | --- | --- | --- | --- | --- | --- | --- |
| 603 nM | 15 nM | < 0.02 µM | 0.18 µM | 0.19 µM | 0.04 µM | 0.12 µM | 0.14 µM | 72 nM | N[C@H]1CC[C@H](Nc2nc(NC3CCN(C(=O)Nc4ccc(Br)cc4)CC3)c3ncn(C4CCCC4)c3n2)CC1 [compound 162, trans-4-[2-(4-Amino-cyclohexylamino)-9-cyclopentyl-9H-purin-6-ylamino]-piperidine-1-carboxylic acid (4-bromo-phenyl)-amide dihydrochloride] |
| 855 nM | 37 nM | 0.05 µM | 0.21 µM | 0.28 µM | 0.19 µM | 0.21 µM | 0.17 µM | 57 nM | COc1ccccc1NC(=O)N1CCC(Nc2nc(N[C@H]3CC[C@H](N)CC3)nc3c2ncn3C2CCCC2)CC1 [compound 163, trans-4-[2-(4-Amino-cyclohexylamino)-9-cyclopentyl-9H-purin-6-ylamino]-piperidine-1-carboxylic acid (2-methoxy-phenyl)-amide dihydrochloride] |
| 711 nM | 11 nM | < 0.02 µM | 0.2 µM | 0.22 µM | 0.02 µM | 0.13 µM | 0.08 µM | 21 nM | N[C@H]1CC[C@H](Nc2nc(NC3CCN(C(=O)Nc4cccc(Cl)c4)CC3)c3ncn(C4CCCC4)c3n2)CC1 [compound 165, trans-4-[2-(4-Amino-cyclohexylamino)-9-cyclopentyl-9H-purin-6-ylamino]-piperidine-1-carboxylic acid (3-chloro-phenyl)-amide dihydrochloride] |
| 130 nM | 28 nM | 0.04 µM | 0.15 µM | 0.21 µM | 0.09 µM | 0.15 µM | 0.11 µM | 45 nM | N[C@H]1CC[C@H](Nc2nc(NC3CCN(C(=O)Nc4ccccc4Cl)CC3)c3ncn(C4CCCC4)c3n2)CC1 [compound 169, trans-4-[2-(4-Amino-cyclohexylamino)-9-cyclopentyl-9H-purin-6-ylamino]-piperidine-1-carboxylic acid (2-chloro-phenyl)-amide dihydrochloride] |
| 156 nM | 3 nM | < 0.02 µM | 0.3 µM | 0.24 µM | < 0.02 µM | 0.26 µM | 0.19 µM | 51 nM | N[C@H]1CC[C@H](Nc2nc(NC3CCN(C(=O)Nc4cccc(Br)c4)CC3)c3ncn(C4CCCC4)c3n2)CC1 [compound 170, trans-4-[2-(4-Amino-cyclohexylamino)-9-cyclopentyl-9H-purin-6-ylamino]-piperidine-1-carboxylic acid (3-bromo-phenyl)-amide dihydrochloride] |
| 963 nM | 51 nM | 0.05 µM | 0.23 µM | 0.31 µM | 0.14 µM | 0.23 µM | 0.25 µM | 89 nM | CCOc1ccccc1NC(=O)N1CCC(Nc2nc(N[C@H]3CC[C@H](N)CC3)nc3c2ncn3C2CCCC2)CC1 [compound 171, trans-4-[2-(4-Amino-cyclohexylamino)-9-cyclopentyl-9H-purin-6-ylamino]-piperidine-1-carboxylic acid (2-ethoxy-phenyl)-amide dihydrochloride] |
| 682 nM | 12 nM | 0.04 µM | 0.23 µM | 0.16 µM | 0.05 µM | 0.2 µM | 0.12 µM | 114 nM | N[C@H]1CC[C@H](Nc2nc(NC3CCN(C(=O)Nc4ccc(OC(F)(F)F)cc4)CC3)c3ncn(C4CCCC4)c3n2)CC1 [compound 175, trans-4-[2-(4-Amino-cyclohexylamino)-9-cyclopentyl-9H-purin-6-ylamino]-piperidine-1-carboxylic acid (4-trifluoromethoxy-phenyl)-amide dihydrochloride] |
| 432 nM | 7 nM | 0.03 µM | 0.14 µM | 0.21 µM | 0.12 µM | 0.15 µM | 0.17 µM | 60 nM | N[C@H]1CC[C@H](Nc2nc(NC3CCN(C(=O)Nc4cc(C(F)(F)F)ccc4Cl)CC3)c3ncn(C4CCCC4)c3n2)CC1 [compound 177, trans-4-[2-(4-Amino-cyclohexylamino)-9-cyclopentyl-9H-purin-6-ylamino]-piperidine-1-carboxylic acid (2-chloro-5-trifluoromethyl-phenyl)-amide dihydrochloride] |
| 879 nM | 49 nM | < 0.02 µM | 0.23 µM | 0.28 µM | 0.09 µM | 0.16 µM | 0.14 µM | 100 nM | N[C@H]1CC[C@H](Nc2nc(NC3CCN(C(=O)Nc4ccc(Cl)cc4C(F)(F)F)CC3)c3ncn(C4CCCC4)c3n2)CC1 [compound 178, trans-4-[2-(4-Amino-cyclohexylamino)-9-cyclopentyl-9H-purin-6-ylamino]-piperidine-1-carboxylic acid (4-chloro-2-trifluoromethyl-phenyl)-amide dihydrochloride] |
| 497 nM | 8 nM | 0.07 µM | 0.5 µM | 0.5 µM | 0.18 µM | 0.37 µM | 0.24 µM | 261 nM | N[C@H]1CC[C@H](Nc2nc(NC3CCN(C(=O)Nc4ccc(Cl)c(C(F)(F)F)c4)CC3)c3ncn(C4CCCC4)c3n2)CC1 [compound 179, trans-4-[2-(4-Amino-cyclohexylamino)-9-cyclopentyl-9H-purin-6-ylamino]-piperidine-1-carboxylic acid (4-chloro-3-trifluoromethyl-phenyl)-amide dihydrochloride] |
| 431 nM | 12 nM | < 0.02 µM | 0.12 µM | 0.2 µM | 0.04 µM | 0.09 µM | 0.1 µM | 44 nM | N[C@H]1CC[C@H](Nc2nc(NC3CCN(C(=O)Nc4cc(F)ccc4F)CC3)c3ncn(C4CCCC4)c3n2)CC1 [compound 180, trans-4-[2-(4-Amino-cyclohexylamino)-9-cyclopentyl-9H-purin-6-ylamino]-piperidine-1-carboxylic acid (2,5-difluoro-phenyl)-amide dihydrochloride] |
| 305 nM | 32 nM | 0.02 µM | 0.12 µM | 0.17 µM | < 0.02 µM | 0.1 µM | 0.15 µM | 174 nM | N[C@H]1CC[C@H](Nc2nc(NC3CCN(C(=O)Nc4cc(Cl)cc(Cl)c4)CC3)c3ncn(C4CCCC4)c3n2)CC1 [compound 182, trans-4-[2-(4-Amino-cyclohexylamino)-9-cyclopentyl-9H-purin-6-ylamino]-piperidine-1-carboxylic acid (3,5-dichloro-phenyl)-amide dihydrochloride] |
